Measured values: patent US11291666B2, “Uses” (INTRA-CELLULAR THERAPIES, INC., priority 2016, dated 2022)

How the values were obtained:
[1] = test system: BV2 cells; test: LPS-induced TNFα release from BV2 cells (ELISA); format: cell-based, mouse; conditions: 50 ng/ml LPS stimulation, FIG. 5
Experimental: TNFα release: TNFα levels are measured in BV2 conditioned media and normalized to cell protein levels. Inhibition of LPS-induced TNFα release from BV2 cells is depicted in FIG. 5.
The test compound is added first, the LPS is added one hour later, and the cells and/or media are harvested at five hours from commencement of the experiment.
TNFαELISA: Thermo Fisher mouse TNFα colorimetric, sandwich ELISA kit. Interpolatee values from standard curve. Dose response is fit to a 4-parameter logistic curve.

[2] = test system: inflammatory gene expression in mouse striatum; test: Inflammatory gene expression in mouse striatum after LPS (Q-PCR); format: in vivo
Experimental: RTqPCR: RNA from BV2 cells purified using RNeasyKit (Qiagen) and from mouse tissue using TRIzol (Ambion). TaqMan primer-probe assays from Thermo Fisher. mRNA levels for all conditions are normalized to GAPDH and to vehicle control (ΔΔCt). Data are analyzed statistically using one-way ANOVA with the Bonferroni post-test for multiple comparisons.
The results are based upon an evaluation of samples using Q-PCR.
Data from a further experiment measuring the effect of PDE1 inhibition on inflammatory gene expression in mouse striatum is depicted in FIG. 7. […] Striatal tissue is isolated and flash frozen, and RNA is extracted. Measurements from RT-qPCR are shown as log 2 fold change (2ΔΔCt). n=4 *p<0.05, **p<0.01, ***p<0.001, ****p<0.0001.
Data from yet another experiment measuring the effect of PDE1 inhibition on inflammatory gene expression in mouse striatum is depicted in FIG. 8. […] Striatal tissue is analyzed for mRNA levels of TNF, IL1β, Ccl2, and IL6. Expression levels are shown as change in Q-PCR signal from vehicle (ΔΔCt) and compared using an ANOVA. * p<0.05, **p<0.01, ***p<0.001.

[3] = test system: BV2 cells; test: RT-qPCR of selected genes in BV2 cells with ITI-214, cyclase activators and PKA/PKG inhibitors; format: cell-based, mouse
Experimental: In a further experiment a group of genes is selected for further analysis by RT-qPCR. For comparison, genes are analyzed which have been implicated in the scientific literature in microglial and astrocyte activation, including genes in the complement pathway.
All sample values are normalized to an average of 3 reference genes and to vehicle control (ΔΔCt). The error bars represent the mean+/−SEM (n=4). From left to right, for each cytokine grouping, the bars indicate samples treated with: LPS, 0.1 μM 214+LPS, 0.4 μM 214+LPS, 1.1 μM 214+LPS, 3.3 μM 214+LPS, 10 μM 214+LPS, for each particular gene shown on the X-axis. Significant changes between LPS and 10 μM ITI-214+LPS (A) and Vehicle and 10 μM ITI-214 (B) are marked on the X-axis gene names and are calculated using a one-way ANOVA. * p<0.05, **p<0.01, ***p<0.001, ****p<0.0001.
In one particular experiment, BV2 cells are treated with 10 μM forskolin (FSK) to activate adenylyl cyclases, 5 μM DEANO to activate soluble guanylyl cyclase, or 100 nM atrial natriuretic peptide (ANP) to activate particulate guanylyl cyclase. […] Upon combining forskolin with ITI-214 some of the effects of ITI-214 inhibition can be increased. […] However, LIF reverts to LPS-level expression when forskolin is added.
Note that gene expression levels upon addition of PKA or PKG inhibitor to 10 μM ITI-214 are on the order of those relative to LPS treatment alone were reduced to levels equivalent to 3.3 μM ITI-214.

[4] = test system: C57Bl/6 mice; test: Chronic unpredictable stress (CUS) model, inflammatory markers and depression-like behaviors; format: in vivo, mouse; conditions: 10 mg/kg i.p. daily
Text: This experiment compares the impact of chronic stress on the brain cytokine/chemokine profile in wild type mice vs PDE1B conditional knockout mice.
PDE1B conditional knockout mice are described in Siuciak J A, et al. “Behavioral and neurochemical characterization of mice deficient in the phosphodiesterase-1B (PDE1B) enzyme.” Neuropharmacology. 2007 July; 53(1):113-24. Protocols for CUS and other models of chronic stress are described in Monteiro, et al., “An Efficient Chronic Unpredictable Stress Protocol to Induce Stress-Related Responses in C57BL/6 Mice,” Front Psychiatry. 2015; 6: 6 and in Mann et al., “Chronic social defeat, but not restrain stress, alters bladder function in mice” Physiol. Behav. 2015; Oct. 15; 150: 83-92.
Generally, wild type (control) mice and PDE1B conditional knockout mice, as appropriate, are exposed to the chronic stress using restraint stress in shallow water model (RSSW) as described by Mann et al (2015), above. […] Control mice for these experiments are also maintained in single housing cages. In accordance the stress protocol, the mice are monitored for the depression-like behavior profile. Mice are then sacrificed and tissue samples are collected. […] Brain tissue and serum is analyzed for a panel of markers, including pro-inflammatory and anti-inflammatory cytokines and chemokines.
C57Bl/6 mice are subjected to the CUS protocol (14d, as described) or sham treatment, evaluated for depression-like behaviors at a specified time points, and sacrificed for collection of blood (serum preparation) and brain collection. Serum is analyzed for corticosterone (CORT) levels and other inflammatory markers. The brain is analyzed for a panel of inflammatory markers by qPCR (mRNA) and MSD (protein).
Mice are evaluated for depression-like behaviors at a specified time point to test the impact of the CUS protocol and of the PDE1 inhibitor treatment on the depression-like phenotype. […] Serum is analyzed for CORT levels and other inflammatory markers. Brain samples are analyzed for a panel for a panel of inflammatory markers by qPCR (mRNA) and MSD (protein). […]

[5] = Striatum Mouse + LPS, initial results
[6] = adult mice, 10 mg/kg i.p., 500 μg/kg LPS s.c. for 2 hours, FIG. 8
[7] = mouse striatum, 10 mg/kg i.p., LPS 500 μg/kg s.c., two hours, FIG. 7

SMILES: CN1C(=O)c2c(nn(Cc3ccc(-c4cccc(F)n4)cc3)c2Nc2ccccc2)N2C1=N[C@@H]1CCC[C@@H]12 [Compound 214]
- LPS-induced TNFα release [1]: dose-dependent inhibition
- Chemokine (C-C) motif Ligand 2 expression (Q-PCR) [2, 5]: Down
- Oncostatin M expression (Q-PCR) [2, 5]: Down
- expression of Ccl2 mRNA in striatum [2, 6]: attenuates
- expression of TNF mRNA in striatum [2, 6]: attenuates
- levels of IL1-beta mRNA in striatum [2, 6]: trended to lower levels
- levels of IL6 mRNA in striatum [2, 6]: trended to lower levels
- LPS stimulation of the pro-inflammatory cytokines TNFα, Ccl2, IL-1β, and IL-6 [2, 7]: inhibits
- expression of the anti-inflammatory cytokine IL-10 [2, 7]: significantly enhance
- LPS-induced inflammatory gene expression changes in mice ([2]; striatal tissue, 10 mg/kg i.p., 2 hours, FIG. 8): prevents
- induction of Cx3cr1 by LPS [3]: significantly reduced
- modulation of transcriptional responses to LPS ([3]; 50 ng/ml LPS, 0.1-10 μM, FIG. 10a): dose dependent
- ITI-214 responsive transcripts (Cx3cr1, Csf2, TNF, Cc14, MAPKAPK2, PtpN6, Ccr1) with concomitant forskolin ([3]; LPS, 10 μM forskolin, FIG. 11a): further down- or up-modulated
- impact of ITI-214 on addition of PKA inhibitor cAMPS-Rp or PKG inhibitor -8-Br-PET-cGMPS ([3]; LPS, inhibitors 100 μM, FIG. 11b): Moderate reduction
- basal expression of Cx3cr1 ([3]; in the absence of LPS): significantly reduced
- LIF expression ([3]; with LPS, FIG. 11a): further increased
- effect on tissue and serum markers and behaviors in PDE1B KO mice ([4]; PDE1B KO mice, CUS): no significant effect
- CUS-induced CNS and serum markers (proinflammatory) ([4]; normal C57Bl/6 mice, CUS 14d): significantly suppresses
- expression of depression-like behaviors ([4]; normal C57Bl/6 mice, CUS 14d): significantly suppresses
